{"source": "ChEMBL document CHEMBL1135295", "about": "“Novel camptothecin derivatives. Part 1: oxyalkanoic acid esters of camptothecin and their in vitro and in vivo antitumor activity” (2002)", "key": {"[1]": {"species_on_record": "Mus musculus", "assay": "The tumor growth value was reported as ratio of surviving days of mice treated with anticancer drug to surviving days of control mice", "assay_type": "functional"}, "[2]": {"test_system": "HCT-116/VM46", "assay": "Compound was tested in vitro for cytotoxicity against VM46 subline of HCT116 (taxol-resistant) at a drug concentration producing 50% inhibition of colony formation", "conditions": "Homo sapiens, read-out: ID50 (the source's name)"}, "[3]": {"test_system": "HCT-116", "assay": "Compound was tested in vitro for cytotoxicity against HCT116, human colon cancer cells (taxol-sensitive) at a drug concentration producing 50% inhibition of colony formation", "conditions": "read-out: ID50 (the source's name)"}, "[4]": {"test_system": "NCI/ADR-RES", "assay": "Compound was tested in vitro for cytotoxicity against MCF-7ADR, human breast cancer cells (taxol-resistant) at a drug concentration producing 50% inhibition of colony formation", "assay_type": "functional", "conditions": "read-out: ID50 (the source's name)"}, "[5]": {"test_system": "Mus musculus", "assay": "Compound was tested in vivo for antitumor activity, reported as non toxic dose (NTD) in mice injected intraperitoneally with drug"}, "[6]": {"test_system": "PC-3", "assay": "Compound was tested in vitro for cytotoxicity against PC-3, human prostate cancer cells (taxol-sensitive) at a drug concentration producing 50% inhibition of colony formation", "assay_type": "functional", "conditions": "read-out: ID50 (the source's name)"}, "[7]": {"test_system": "Mus musculus", "assay": "Compound was tested in vivo for antitumor activity, reported as maximum tolerated dose (MTD) in mice injected intraperitoneally with drug"}}, "data": [{"smiles": "CC[C@@]1(OC(=O)CO[C@@H]2C[C@H](C)CC[C@H]2C(C)C)C(=O)OCc2c1cc1n(c2=O)Cc2cc3ccccc3nc2-1", "values": [{"measurement": "T/C", "setting": "[1]", "result": 200, "unit": "%"}, {"measurement": "IC50", "setting": "[2]", "result": 2.5, "unit": "nM"}, {"measurement": "IC50", "setting": "[3]", "result": 3.6, "unit": "nM"}, {"measurement": "IC50", "setting": "[4]", "result": 7.2, "unit": "nM"}, {"measurement": "NTD", "setting": "[5]", "result": 100, "unit": "mg/kg"}, {"measurement": "IC50", "setting": "[6]", "result": 6.2, "unit": "nM"}]}, {"smiles": "CCc1c2c(nc3ccc(OC(=O)N4CCC(N5CCCCC5)CC4)cc13)-c1cc3c(c(=O)n1C2)COC(=O)[C@]3(O)CC", "note": "[IRINOTECAN]", "values": [{"measurement": "T/C", "setting": "[1]", "result": 217, "unit": "%"}, {"measurement": "IC50", "setting": "[2]", "result": 220, "unit": "nM"}, {"measurement": "IC50", "setting": "[3]", "result": 540, "unit": "nM"}, {"measurement": "IC50", "setting": "[4]", "result": "> 500", "unit": "nM"}, {"measurement": "MTD", "setting": "[7]", "result": 200, "unit": "mg/kg"}]}, {"smiles": "CC[C@@]1(OC(=O)COc2ccc3c(C)c(Cl)c(=O)oc3c2)C(=O)OCc2c1cc1n(c2=O)Cc2cc3ccccc3nc2-1", "values": [{"measurement": "T/C", "setting": "[1]", "result": 200, "unit": "%"}, {"measurement": "IC50", "setting": "[2]", "result": 0.7, "unit": "nM"}, {"measurement": "IC50", "setting": "[3]", "result": 3.5, "unit": "nM"}, {"measurement": "IC50", "setting": "[4]", "result": 5.2, "unit": "nM"}, {"measurement": "NTD", "setting": "[5]", "result": 75, "unit": "mg/kg"}, {"measurement": "IC50", "setting": "[6]", "result": 3, "unit": "nM"}]}, {"smiles": "CC[C@@]1(OC(=O)CCCCOc2ccc(F)cc2Br)C(=O)OCc2c1cc1n(c2=O)Cc2cc3ccccc3nc2-1", "values": [{"measurement": "IC50", "setting": "[2]", "result": 94, "unit": "nM"}, {"measurement": "IC50", "setting": "[3]", "result": "> 100", "unit": "nM"}, {"measurement": "IC50", "setting": "[4]", "result": "> 100", "unit": "nM"}, {"measurement": "NTD", "setting": "[5]", "result": 150, "unit": "mg/kg"}]}, {"smiles": "CC[C@@]1(OC(=O)CCOc2ccccc2)C(=O)OCc2c1cc1n(c2=O)Cc2cc3ccccc3nc2-1", "values": [{"measurement": "T/C", "setting": "[1]", "result": 133, "unit": "%"}, {"measurement": "IC50", "setting": "[2]", "result": 7, "unit": "nM"}, {"measurement": "IC50", "setting": "[3]", "result": 8, "unit": "nM"}, {"measurement": "IC50", "setting": "[4]", "result": 28, "unit": "nM"}, {"measurement": "NTD", "setting": "[5]", "result": 150, "unit": "mg/kg"}]}, {"smiles": "CC[C@@]1(O)C(=O)OCc2c1cc1n(c2=O)Cc2cc3ccccc3nc2-1", "note": "[CAMPTOTHECIN]", "values": [{"measurement": "T/C", "setting": "[1]", "result": 183, "unit": "%"}, {"measurement": "IC50", "setting": "[2]", "result": 2.4, "unit": "nM"}, {"measurement": "IC50", "setting": "[3]", "result": 2.8, "unit": "nM"}, {"measurement": "IC50", "setting": "[4]", "result": 3.9, "unit": "nM"}, {"measurement": "IC50", "setting": "[6]", "result": 3.8, "unit": "nM"}, {"measurement": "MTD", "setting": "[7]", "result": 12, "unit": "mg/kg"}]}, {"smiles": "CC[C@@]1(OC(=O)COc2ccc([N+](=O)[O-])cc2)C(=O)OCc2c1cc1n(c2=O)Cc2cc3ccccc3nc2-1", "values": [{"measurement": "T/C", "setting": "[1]", "result": 250, "unit": "%"}, {"measurement": "IC50", "setting": "[2]", "result": 3, "unit": "nM"}, {"measurement": "IC50", "setting": "[3]", "result": 3.3, "unit": "nM"}, {"measurement": "IC50", "setting": "[4]", "result": 7, "unit": "nM"}, {"measurement": "NTD", "setting": "[5]", "result": 100, "unit": "mg/kg"}, {"measurement": "IC50", "setting": "[6]", "result": 4.8, "unit": "nM"}]}, {"smiles": "CC[C@@]1(OC(=O)COc2ccc3ccccc3c2)C(=O)OCc2c1cc1n(c2=O)Cc2cc3ccccc3nc2-1", "values": [{"measurement": "T/C", "setting": "[1]", "result": 117, "unit": "%"}, {"measurement": "IC50", "setting": "[2]", "result": 1.8, "unit": "nM"}, {"measurement": "IC50", "setting": "[3]", "result": 3, "unit": "nM"}, {"measurement": "IC50", "setting": "[4]", "result": 4.1, "unit": "nM"}, {"measurement": "NTD", "setting": "[5]", "result": 150, "unit": "mg/kg"}, {"measurement": "IC50", "setting": "[6]", "result": 3.9, "unit": "nM"}]}, {"smiles": "CC[C@@]1(OC(=O)COc2ccc3c(c2)OCO3)C(=O)OCc2c1cc1n(c2=O)Cc2cc3ccccc3nc2-1", "values": [{"measurement": "T/C", "setting": "[1]", "result": 200, "unit": "%"}, {"measurement": "IC50", "setting": "[2]", "result": 2.4, "unit": "nM"}, {"measurement": "IC50", "setting": "[3]", "result": 3.1, "unit": "nM"}, {"measurement": "IC50", "setting": "[4]", "result": 5, "unit": "nM"}, {"measurement": "NTD", "setting": "[5]", "result": 45, "unit": "mg/kg"}, {"measurement": "IC50", "setting": "[6]", "result": 4.6, "unit": "nM"}]}, {"smiles": "CC[C@@]1(OC(=O)COc2ccc(Br)cc2)C(=O)OCc2c1cc1n(c2=O)Cc2cc3ccccc3nc2-1", "values": [{"measurement": "T/C", "setting": "[1]", "result": 300, "unit": "%"}, {"measurement": "IC50", "setting": "[2]", "result": 1.9, "unit": "nM"}, {"measurement": "IC50", "setting": "[3]", "result": 3, "unit": "nM"}, {"measurement": "IC50", "setting": "[4]", "result": 5.5, "unit": "nM"}, {"measurement": "NTD", "setting": "[5]", "result": 150, "unit": "mg/kg"}, {"measurement": "IC50", "setting": "[6]", "result": 3.2, "unit": "nM"}]}, {"smiles": "CC[C@@]1(OC(=O)CCCOc2ccc(Cl)cc2Cl)C(=O)OCc2c1cc1n(c2=O)Cc2cc3ccccc3nc2-1", "values": [{"measurement": "T/C", "setting": "[1]", "result": 250, "unit": "%"}, {"measurement": "IC50", "setting": "[2]", "result": 27, "unit": "nM"}, {"measurement": "IC50", "setting": "[3]", "result": 39, "unit": "nM"}, {"measurement": "IC50", "setting": "[4]", "result": 89, "unit": "nM"}, {"measurement": "NTD", "setting": "[5]", "result": 100, "unit": "mg/kg"}]}, {"smiles": "CC[C@@]1(OC(=O)COc2ccc(Cl)cc2C)C(=O)OCc2c1cc1n(c2=O)Cc2cc3ccccc3nc2-1", "values": [{"measurement": "T/C", "setting": "[1]", "result": 217, "unit": "%"}, {"measurement": "IC50", "setting": "[2]", "result": 0.9, "unit": "nM"}, {"measurement": "IC50", "setting": "[3]", "result": 2.7, "unit": "nM"}, {"measurement": "IC50", "setting": "[4]", "result": 4.3, "unit": "nM"}, {"measurement": "NTD", "setting": "[5]", "result": 150, "unit": "mg/kg"}, {"measurement": "IC50", "setting": "[6]", "result": 3.5, "unit": "nM"}]}, {"smiles": "CC(=O)O[C@H]1C(=O)[C@@]2(C)[C@H]([C@H](OC(=O)c3ccccc3)[C@]3(O)C[C@H](OC(=O)[C@H](O)[C@@H](NC(=O)c4ccccc4)c4ccccc4)C(C)=C1C3(C)C)[C@]1(OC(C)=O)CO[C@@H]1C[C@@H]2O", "note": "[PACLITAXEL]", "values": [{"measurement": "T/C", "setting": "[1]", "result": 150, "unit": "%"}, {"measurement": "IC50", "setting": "[2]", "result": "> 50", "unit": "nM"}, {"measurement": "IC50", "setting": "[4]", "result": "> 10000", "unit": "nM"}, {"measurement": "IC50", "setting": "[6]", "result": 4, "unit": "nM"}, {"measurement": "MTD", "setting": "[7]", "result": 40.6, "unit": "mg/kg"}]}]}
